Measurements taken from patent US8088729B2 (priority 2005, dated 2012).
Several values for one entry are separate records, joined by “and”; a condition that tells them apart may be missing. Equal values may be shown once. Read-outs that look alike come from different tables or passages of the source.

Legend:
MDCK cells [1] = experiment: cells; format: cell-based, canine
MDCK cells [2] = experiment: cells; format: cell-based, canine; remark: listed apart in the source
soluble gp120 (sgp120) = soluble gp120 (sgp120) (Human immunodeficiency virus type 1 group M subtype B, UniProt P03375)
Beijing/262/95 (H1N1) = format: cell-based, influenza A
Vero76 cells [3] = format: cell-based
Texas/36/91 (H1N1) = format: cell-based, influenza A
[4] = test system: cell-cell fusion of uninfected and chronically infected CEM-SS; format: cell-based
[5] = test system: T-lymphocytes (CEM-SS), PBMCs, macrophages; settings: concentrations 1000-fold higher than the EC50 values
SARS virus [6] = format: cell-based
Washington/05/96 (H3N2) = format: cell-based, influenza A
HIV-1 RF = format: cell-based
HIV = format: cell-based
From the text: Potent cytoprotective and anti-replicative activities of both natural and His-tagged recombinant Griffithsin were observed using the HIV-1RF strain of HIB in CEM-SS cells. […] In contrast, infectivity of cell-free virus was abolished after pretreatment and removal of Griffithsin.

HIV-1 ROJO = format: cell-based; settings: HIV primary isolate ROJO; PBMC; T-tropic; supernatant RT activity; mean value
gp160 = gp160 (Human immunodeficiency virus type 1 group M subtype B, UniProt P03375); settings: 100 ng protein standard, Griffithsin 100 ng/well; FIG. 5a
Shandong/09/93 (H3N2) = format: cell-based, influenza A
HCV RNA replicon = format: cell-based, Hepatitis C virus; settings: for Inhibition of Viral Activity (% reduction Luc): 20 µM
SARS virus [7] = test system: SARS virus
[8] = molecular target: sgp120 binding of CD4 on CEM-SS cells (Human immunodeficiency virus type 1 group M subtype B, UniProt P03375); settings: pretreatment of sgp120 with Griffithsin, Leu3a epitope availability
CEM-SS cells = test system: CEM-SS cells; design: direct cytotoxicity to the host cells: dose or concentration left out as unconfirmed
[9] = test system: bovine IgG, α-acid glycoprotein, and aprotinin; format: binding
Huh7 ET cell line = settings: for Cytotoxicity (% reduction in rRNA)*: single high-test concentration, compared to control cell
Sydney/5/97 (H3N2) = format: cell-based, influenza A
Vero76 cells [10] = format: cell-based; remark: listed apart in the source
Panama/2007/99 (H3N2) = format: cell-based, influenza A
HIV-1IIIB = format: cell-based; settings: concentration-dependent manner
Zaire ebola virus = format: cell-based
gp120 [11] = format: binding, HIV-1; settings: 100 ng protein standard, Griffithsin 100 ng/well; FIG. 5a
gp120 [12] = molecular target: gp120 (Human immunodeficiency virus type 1 group M subtype B, UniProt P03378); format: binding, HIV-1; settings: glycosylated and nonglycosylated HIV-1SF2 gp120, serial dilutions; FIG. 5b
Los Angeles/2/87 (H3N2) = format: cell-based, influenza A
HIV-1 Ba-L = format: cell-based; settings: HIV primary isolate Ba-L; macrophage; M-tropic; p24 ELISA; mean value
HIV-1 ADA = format: cell-based; settings: HIV primary isolate ADA; macrophage; M-tropic; p24 ELISA; mean value
sCD4 = sCD4 (Homo sapiens, UniProt P01730); format: binding
[13] = test system: fusion of CD4 β-gal cells with HL 2/3 cells; format: cell-based
SARS virus [14] = test system: SARS virus; remark: listed apart in the source
[15] = Canis lupus familiaris, MDCK, 72 h

Sequence of gp120 (Human immunodeficiency virus type 1 group M subtype B, UniProt P03378) (P03378 32-509 limits assumed): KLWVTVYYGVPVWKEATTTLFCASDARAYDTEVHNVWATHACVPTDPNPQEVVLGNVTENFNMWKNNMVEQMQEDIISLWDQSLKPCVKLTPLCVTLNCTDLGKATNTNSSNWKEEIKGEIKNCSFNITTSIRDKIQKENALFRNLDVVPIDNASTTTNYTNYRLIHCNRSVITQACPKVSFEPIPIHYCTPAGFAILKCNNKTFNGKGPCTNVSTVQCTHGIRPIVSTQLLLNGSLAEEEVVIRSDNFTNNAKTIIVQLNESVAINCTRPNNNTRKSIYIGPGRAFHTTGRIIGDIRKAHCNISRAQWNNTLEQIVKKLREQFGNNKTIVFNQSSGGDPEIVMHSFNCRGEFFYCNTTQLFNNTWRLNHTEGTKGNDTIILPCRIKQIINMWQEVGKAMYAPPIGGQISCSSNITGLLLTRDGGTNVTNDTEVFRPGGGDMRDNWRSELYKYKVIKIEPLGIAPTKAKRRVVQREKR

## NC(=O)c1ncn([C@@H]2O[C@H](CO)[C@@H](O)[C@H]2O)n1 [Ribavirin, reference compound]
MDCK cells [1]; [15]
  IC50: > 100 mg/L
MDCK cells [2]; [15]
  IC50: > 100 mg/L

## Cyanovirin-N [reference compound]
Soluble gp120 (sgp120); effect of cyanovirin-N
  recognition of sgp120 by Griffithsin: interfered strongly

## Griffithsin
Beijing/262/95 (H1N1)
  EC50: 0.07 mg/L
Vero76 cells [3]
  IC50: >100 mg/L
Texas/36/91 (H1N1)
  EC50: 0.06 mg/L
[4]
  inhibition of cell-cell fusion: concentration-dependent inhibition
[5]
  toxicity against any of the cell lines: did not show any toxicity
SARS virus [6]
  EC50: 4 mg/L and 2 mg/L
  average EC50: 3 mg/L
Washington/05/96 (H3N2)
  EC50: 0.016 mg/L
HIV-1 RF; CEM-SS cells infected with HIV-1, FIG. 4
  anti-HIV activity, EC50: low nanomolar range
HIV-1 RF; HIV-1RF in CEM-SS cells
  inhibition of virus-induced cell killing: concentration-dependent inhibition
  supernatant reverse transcriptase and viral core antigen, p24: concomitant decreases
HIV-1 RF; HIV-1 laboratory strain RF, CEM-SS, T-tropic, XTT-tetrazolium, mean value
  EC50: 0.043 nM
HIV; after pretreatment of virus and removal of Griffithsin
  infectivity of cell-free virus: abolished
HIV; after the removal of Griffithsin
  susceptibility of pretreated uninfected CEM-SS cells to HIV infection: retained normal susceptibility
HIV-1 ROJO
  EC50: 0.63 nM
MDCK cells [1]
  IC50: >10 mg/L
gp160
  interaction with gp160 (ELISA): direct interaction
Shandong/09/93 (H3N2)
  EC50: 0.018 mg/L
HCV RNA replicon
  EC50 (anti-HCV): 7.17 mg/L
  Inhibition of Viral Activity (% reduction Luc): 60%
SARS virus [7]
  EC90: 5 mg/L
[8]
  CD4-dependent sgp120 binding: completely blocked
CEM-SS cells; highest tested concentrations
  direct cytotoxicity to the host cells: no significant evidence of direct cytotoxicity
CEM-SS cells; highest tested concentrations of Griffithsin (78.3 to 783 nM)
  direct cytotoxicity to the uninfected control cells: little or no evidence of direct cytotoxicity
[9]
  interaction with other reference proteins (ELISA): little or no detectable interaction
MDCK cells [2]
  IC50: >10 mg/L
Huh7 ET cell line; highest test concentration of 10 μg/ml, FIG. 7
  toxicity level (cytotoxicity): never reached a toxicity level
Huh7 ET cell line; single high-test concentration of 20 μM, 72 hr
  overall reduction in cell growth: 25%
Huh7 ET cell line; 72 hr
  Cytotoxicity (% reduction in rRNA)*: 74.5%
Sydney/5/97 (H3N2)
  EC50: 0.016 mg/L
Vero76 cells [10]
  IC50: >100 mg/L
  IC50 in each assay: greater than 100 μg/ml
Panama/2007/99 (H3N2)
  EC50: 0.006 mg/L
HIV-1IIIB
  cell-free HIV-1IIIB fusion and infection of β-gal cells: inhibited
Zaire ebola virus
  anti-ebola virus activity: low μg/ml range
gp120 [11]
  interaction with gp120 (ELISA, absorbance at 405 nm): direct interaction
gp120 [12]
  binding of Griffithsin to sgp120: both concentration-dependent and glycosylation-dependent
Soluble gp120 (sgp120); Griffithsin pretreatment of sgp120
  subsequent binding of cyanovirin-N to sgp120: did not block
Soluble gp120 (sgp120); effect of Griffithsin
  recognition of sgp120 by mAbs that recognize the C1 region (or V3 loop), and the mAb 17b: little or no effect
  recognition of sgp120 by the mAbs 48d and 2G12: interfered strongly
  sCD4 and mAb IgG 1b12 binding to sgp120: moderately interfered
Soluble gp120 (sgp120); sgp120 pretreated with sCD4 and the mAbs IgG1b12, 48d, and 2G12
  subsequent binding of Griffithsin to sgp120: did not block
Los Angeles/2/87 (H3N2)
  EC50: 0.037 mg/L
MDCK cell line
  toxicity to the MDCK cell line: not found to be toxic
HIV-1 Ba-L
  EC50: 0.098 nM
HIV-1 ADA
  EC50: 0.5 nM
sCD4
  interaction with cCD4 (ELISA): little or no detectable interaction
[13]
  fusion of CD4 β-gal cells with HL 2/3 cells: inhibited
SARS virus [14]
  EC50: 14 mg/L

## IFN-α [reference compound]
HCV RNA replicon
  Inhibition of Viral Activity (% reduction Luc): 98.6%
Huh7 ET cell line; 72 hr
  Cytotoxicity (% reduction in rRNA)*: 98.4%
